This note sets out measurements from PubChem BioAssay (NCI).

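Method: 48-hour compound exposure of cells in 96-well plates, five concentrations, linear interpolation of endpoints. GI50 marks 50% less growth. TGI marks complete inhibition of growth.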 A value given as a limit tells only on which side of the number the result lay.

Holding throughout (test): NCI tumour cell line growth inhibition, 48 h
In assay [1] the test system is MALME-3M melanoma.
Assay [2] relates to NCI-H522 lung.
Assay [3] relates to RXF 393 renal.
Assay [4] concerns OVCAR-4 ovarian.
The subject of assay [5] is SW-620 colon.
Assay [6] deals with NCI-H23 lung.
Assay [7] concerns CCRF-CEM leukemia.
The subject of assay [8] is UACC-257 melanoma.
The subject of assay [9] is M14 melanoma.
The subject of assay [10] is NCI-H226 lung.

`COC(=O)[C@]1(C)CCC[C@@]2(C)[C@@H]3C[C@@H]4[C@H]5C[C@@]3(CC[C@@H]21)C[C@@]45C`: the TGI was found to be 37.3 µM in [1]; 32.9 µM in [2]; 38.2 µM in assay [3]; 26.7 µM in assay [4]; 62.6 µM in assay [5]; 28.2 µM in assay [6]. The TGI stood at 45.7 µM in [7], 28.8 µM in assay [8], 38.8 µM in assay [9] and 30.5 µM in assay [10].

Turning to `CCCCCCNC(=O)Oc1ccc(/C(=C(/C)Cc2ccc(OC)cc2)c2ccc(OCCN(C)C)cc2)cc1`, the GI50 was 4.49 µM in assay [1]; 5.61 µM in assay [2]; 4.36 µM in assay [3]; 5.02 µM in assay [4]; 4.86 µM in [5]; 5.28 µM in assay [6]. Also, the GI50 is 1.35 µM in [7], 6.42 µM in [8], 6.18 µM in assay [9] and 6.18 µM in assay [10]. Besides, the TGI in assay [1] worked out at 9.64 µM; in [2] it was 10.6 µM; in assay [3], 9.23 µM; in assay [4], 10.3 µM; in assay [5], 9.59 µM; in [6] it was 10.5 µM. The TGI in assay [7] amounted to 5.37 µM; in assay [8] it was 11.9 µM; in assay [9], 11.5 µM; in assay [10] it was 11.9 µM.

As to `Cc1c(Cl)cccc1NC(=O)/C(Cl)=C(\Cl)C(=O)O`, the TGI was determined as 32.2 µM in assay [1]; 7.19 µM in assay [2]; 36.9 µM in assay [3]; 31.6 µM in [4]; 39.9 µM in assay [5]; 33.8 µM in assay [6]. Besides, the TGI in assay [7] was found to be 44.5 µM; in assay [8], 36.7 µM; in assay [9], 30.9 µM; in assay [10], 51.3 µM.

`CCC[CH2][Sn]1([CH2]CCC)[O]C(=O)c2ccc(N)cc2[O]1`: the GI50 in assay [1] is 0.144 µM; in assay [2], 0.048 µM; in assay [3] it was 0.112 µM; in assay [4] it was 1.29 µM; in [5], 0.224 µM; in [6] it was 0.336 µM. Besides, the GI50 in assay [7] is 0.0357 µM; in assay [8] it was 0.548 µM; in [9], 0.576 µM; in [10], 0.857 µM. Further, the TGI is 1.18 µM in assay [1]; 0.179 µM in assay [2]; 0.427 µM in [3]; 2.59 µM in assay [4]; 1.09 µM in assay [5]; 1.61 µM in [6]. Also, the TGI in assay [7] worked out at 1.85 µM; in [8] it was 2.11 µM; in assay [9], 2.18 µM; in [10], 2.64 µM.

Take `CN(C)CCCc1c2ccccc2nc2ccc(Cl)cc12`: the TGI in [1] came out at 30.1 µM; in assay [2], 29.4 µM; in [3] it was 28.8 µM; in [4], 56.1 µM; in [5], 98.4 µM; in assay [6], 84.8 µM. Also, the TGI was found to be 35.8 µM in [7], 26.4 µM in assay [8], 27.8 µM in assay [9] and 40.7 µM in assay [10].

Take `CCOC(=O)Nc1nc2cc(OCC)ccc2s1`: the GI50 was greater than 100 µM in assay [1]; 6.05 µM in assay [2]; greater than 100 µM in [3]; greater than 100 µM in assay [4]; 4.74 µM in [5]; greater than 100 µM in assay [6]. For the same compound, the GI50 in assay [7] is greater than 100 µM; in [8], greater than 100 µM; in assay [9], 8.94 µM; in assay [10] it was greater than 100 µM. In addition, the TGI in assay [1], in assay [2], in assay [3], in assay [4], in assay [5] and in assay [6] was greater than 100 µM throughout. Besides, the TGI in assay [7], in assay [8], in assay [9] and in assay [10] was greater than 100 µM throughout.

As for `CCOC(=O)C1=C(Nc2ccc(Cl)c(Cl)c2)OC/C1=N\NC(=O)Cc1ccccc1`, the TGI in assay [1], in assay [2], in assay [3], in assay [4], in [5] and in [6] was greater than 100 µM each time. The TGI in assay [7], in [8], in [9] and in assay [10] was greater than 100 µM in each case.

With `Clc1ccc2c(c1)[nH]c1c2nc2sccn21`, the TGI in assay [1], in assay [2], in [3], in assay [4], in assay [5] and in assay [6] was greater than 100 µM in each case. The TGI in [7], in [8], in [9] and in assay [10] was greater than 100 µM each time.

On to `COc1cc(/C=C2\CN(C(=O)CCN3CCC(=NO)CC3)C/C(=C\c3cc(OC)c(OC)c(OC)c3)C2=O)cc(OC)c1OC`, for which the GI50 in [1] was 0.211 µM; in assay [2], 0.323 µM; in [3] it was 0.354 µM; in [4], 0.733 µM; in assay [5], 0.273 µM; in assay [6], 0.342 µM. Moreover, the GI50 in assay [7] is 0.266 µM; in assay [8], 0.51 µM; in assay [9] it was 0.248 µM; in assay [10], 0.792 µM. Further, the TGI in assay [1] stood at 0.579 µM; in assay [2] it was 1.34 µM; in assay [3], 0.999 µM; in assay [4], 2.15 µM; in assay [5] it was 0.86 µM; in [6], 1.39 µM. Moreover, the TGI was 1.6 µM in assay [7], 2.44 µM in assay [8], 0.812 µM in assay [9] and 2.85 µM in assay [10].

In the case of `Cc1c(C(=O)CC(=O)C(=O)Nc2cc(Cl)ccc2Cl)[n+](=O)c2ccccc2n1[O-]`, the TGI in assay [1] is greater than 100 µM; in assay [2], 53.6 µM; in assay [3], greater than 100 µM; in assay [4] it was greater than 100 µM; in assay [5] it was greater than 100 µM; in assay [6], greater than 100 µM. The TGI in assay [7] is greater than 100 µM; in assay [8] it was greater than 100 µM; in assay [9], 64.4 µM; in assay [10] it was greater than 100 µM.

With `COc1ccccc1NC(=O)C1=C(C)NC(C)=C(C(=O)Nc2ccccc2OC)C1c1ccc(N(C)C)cc1`, the TGI in [1] is greater than 100 µM; in assay [2], 53.7 µM; in [3] it was 68.6 µM; in assay [4] it was 91.2 µM; in assay [5] it was greater than 100 µM; in assay [6] it was 82.3 µM. Also, the TGI was 52.4 µM in [7], greater than 100 µM in [8], 69.7 µM in assay [9] and 51.3 µM in [10].

Turning to `Oc1c(CN2CCCC2)cc(CSCc2ccccc2)c2cccnc12`, the GI50 in assay [1] was 2.04 µM; in assay [2], 1.14 µM; in [3] it was 0.772 µM; in assay [4] it was 0.456 µM; in assay [5], 0.797 µM; in [6], 1.31 µM. Further, the GI50 in assay [7] was 0.429 µM; in assay [8], 2.14 µM; in assay [9], 0.397 µM; in assay [10], 1.11 µM. In addition, the TGI in assay [1] amounted to 9.06 µM; in assay [2] it was 3.77 µM; in [3], 3.74 µM; in assay [4], 2.47 µM; in assay [5] it was 11.2 µM; in assay [6] it was 5.12 µM. Moreover, the TGI in [7] came to 10.2 µM; in assay [8] it was 7.03 µM; in assay [9], 2.59 µM; in [10], 4.8 µM.

Regarding `CC(C(=O)O)c1ccc(-c2ccccc2)c(F)c1` (centres undefined), the TGI in [1], in assay [2], in assay [3], in [4], in assay [5] and in [6] was greater than 100 µM each time. The TGI in assay [7], in assay [8], in assay [9] and in assay [10] was greater than 100 µM throughout.

As to `COC(=O)c1cc(-c2ccc(OC)cc2)[nH]c1N/N=C/c1c(Cl)cccc1Cl`, the GI50 in assay [1] is 0.316 µM; in assay [2] it was 0.0877 µM; in assay [3], 0.142 µM; in [4] it was 0.659 µM; in assay [5] it was 0.26 µM; in assay [6], 0.412 µM. The GI50 in assay [7] was 0.312 µM; in assay [8], 0.409 µM; in [9], 0.196 µM; in assay [10] it was 0.574 µM. For the same compound, the TGI is 0.491 µM in assay [2]; 0.332 µM in assay [3]; greater than 53.6 µM in assay [4]; 97.5 µM in [5]; 14 µM in assay [6]; 3.39 µM in [7]. In addition, the TGI in [8] was found to be 9.17 µM; in [9], 1.1 µM; in assay [10] it was 28.1 µM.

On to `CC(C)(C)n1cc(-c2ccnc(NCCCNS(=O)(=O)c3ccc(Br)cc3)c2)c(-c2cccc(O)c2)n1`, for which the GI50 in [1] is 1.66 µM; in assay [2], 2.13 µM; in [3] it was 1.46 µM; in [4], 1.91 µM; in assay [5] it was 1.83 µM; in [6] it was 1.83 µM. Further, the GI50 in assay [7] is 2.26 µM; in assay [8], 2.01 µM; in assay [9], 1.78 µM; in assay [10] it was 2.31 µM. Moreover, the TGI in assay [1] worked out at 3.24 µM; in assay [2] it was 4.55 µM; in [3], 2.87 µM; in [4], 3.91 µM; in assay [5] it was 3.63 µM; in assay [6], 3.72 µM. Also, the TGI in assay [7] is greater than 100 µM; in assay [8] it was 4.33 µM; in assay [9], 3.29 µM; in assay [10], 5.59 µM.

On to `N=c1ccc2nc3c(cc(N)c4ccccc43)oc-2c1`, for which the GI50 in assay [1] is 0.169 µM; in assay [2], 0.19 µM; in assay [3], 0.71 µM; in assay [4], 0.0919 µM; in assay [5] it was 0.252 µM; in assay [6], 0.179 µM. For the same compound, the GI50 in assay [7] was 0.546 µM; in [8] it was 0.271 µM; in [9], 0.164 µM; in assay [10] it was 0.386 µM. Also, the TGI in [1] is 0.362 µM; in [2], 0.501 µM; in assay [3], 2.32 µM; in assay [4], 0.235 µM; in assay [5], 0.754 µM; in assay [6] it was 0.523 µM. Besides, the TGI stood at 3.28 µM in [7], 0.819 µM in assay [8], 0.338 µM in [9] and 1.63 µM in assay [10].

For `CN1C(=O)C2C=CC1C1CCC2N(C)C1=O` (centres undefined), the TGI in assay [1], in assay [2], in assay [3], in [4], in assay [5] and in [6] was greater than 100 µM throughout. The TGI in assay [7], in [8], in assay [9] and in [10] was greater than 100 µM throughout.

On to `COC(=O)c1ccc2c(c1)C(=O)c1c-2n(CCCN)c(=O)c2cc(OC)c(OC)cc12`, for which the GI50 in assay [1] is 18.7 µM; in assay [2], 17.1 µM; in assay [3] it was 21.6 µM; in assay [4], 19.8 µM; in [5], 7.9 µM; in assay [6] it was 17.1 µM. The GI50 in [7] was 3.78 µM; in assay [8] it was 14.5 µM; in assay [9], 18.7 µM; in assay [10], 16.7 µM. In addition, the TGI was 45.7 µM in assay [1]; 37.2 µM in [2]; greater than 52 µM in [3]; 40 µM in assay [4]; 24.4 µM in [5]; 33.5 µM in assay [6]. The TGI in assay [7] was 10.2 µM; in assay [8], greater than 41.5 µM; in [9], 34.4 µM; in [10], 36.7 µM.

As for `COc1cc(/C=C/c2ccc(OC)c(OC)c2OC)cc(OC)c1OC`, the TGI in assay [1] is 48.7 µM; in assay [2], greater than 51.6 µM; in [3], 46.3 µM; in [4] it was 70.9 µM; in assay [5], greater than 92.6 µM; in assay [6] it was 69.2 µM. Also, the TGI in [7] turned out to be 85.8 µM; in [8] it was 52.8 µM; in assay [9], 77 µM; in [10], 39.7 µM.
